In patent US9603364B2 (Dow AgroSciences LLC, priority 2013, dated 2017):

Assays:
Assay in all cases: General post-emergent herbicidal activity, foliar application
Assay type in all cases: in vivo
Zea mays L. (corn) = settings: 336 h, scored after 14 days, read-out: % Visual Growth Reduction ZEAMX; for plant injury at 70 g/ha: 70 g ai/ha; for plant injury at 140 g/ha: 140 g ai/ha; for plant injury at 280 g/ha: 280 g ai/ha
Method in brief: (§1)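 Compounds in acetone/DMSO (97:3) diluted into aqueous spray with isopropanol, Atplus 411F crop oil and Triton X-155; top rate plus 1/2×–1/16× serial rates applied to foliage, solvent blank as control. Greenhouse, sub-irrigated; visual injury versus untreated plants scored 0–100% (100 = complete kill) after 14 days.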

Oryza sativa L. (rice) = settings: Oryza sativa, 336 h, scored after 14 days, read-out: % Visual Growth Reduction ORYSA; for plant injury at 70 g/ha: 70 g ai/ha; for plant injury at 140 g/ha: 140 g ai/ha; for plant injury at 280 g/ha: 280 g ai/ha
Method in brief: as §1

[1] = tested on: Euphorbia heterophylla L. (poinsettia, wild); settings: for GR80 Value EPHHL: calculated by probit analysis, dose for 80% visual injury, may be extrapolated; for pest or weed control at 70 g/ha: 70 g ai/ha; for pest or weed control at 140 g/ha: 140 g ai/ha; for pest or weed control at 280 g/ha: 280 g ai/ha
Method in brief: (§2)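 Compounds in acetone/DMSO 97:3 were diluted into aqueous spray mix with isopropanol, crop oil concentrate and Triton X-155, then serially diluted to 1/2×–1/16× of the top rate and sprayed on foliage. Plants were kept in greenhouse with sub-irrigation. Injury was scored visually (0–100%) at 14 days; GR20/GR50/GR80 came from probit analysis.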

[2] = tested on: Chenopodium album L. (lambsquarters, common); settings: for GR80 Value CHEAL: calculated by probit analysis, dose for 80% visual injury, may be extrapolated; for pest or weed control at 70 g/ha: 70 g ai/ha; for pest or weed control at 140 g/ha: 140 g ai/ha; for pest or weed control at 280 g/ha: 280 g ai/ha
Method in brief: as §2

[3] = tested on: Echinochloa crus-galli (L.) Beauv. (barnyardgrass); settings: for GR80 Value ECHCG: calculated by probit analysis, dose for 80% visual injury, may be extrapolated; for pest or weed control at 70 g/ha: 70 g ai/ha; for pest or weed control at 140 g/ha: 140 g ai/ha; for pest or weed control at 280 g/ha: 280 g ai/ha
Method in brief: as §2

[4] = tested on: Amaranthus retroflexus L. (pigweed, redroot); settings: for GR80 Value AMARE: calculated by probit analysis, dose for 80% visual injury, may be extrapolated; for pest or weed control at 70 g/ha: 70 g ai/ha; for pest or weed control at 140 g/ha: 140 g ai/ha; for pest or weed control at 280 g/ha: 280 g ai/ha
Method in brief: as §2

[5] = tested on: Helianthus annuus L. (sunflower, common); settings: for GR80 Value HELAN: calculated by probit analysis, dose for 80% visual injury, may be extrapolated; for pest or weed control at 70 g/ha: 70 g ai/ha; for pest or weed control at 140 g/ha: 140 g ai/ha; for pest or weed control at 280 g/ha: 280 g ai/ha
Method in brief: as §2

[6] = tested on: Viola tricolor L. (pansy); settings: for GR80 Value VIOTR: calculated by probit analysis, dose for 80% visual injury, may be extrapolated; for pest or weed control at 70 g/ha: 70 g ai/ha; for pest or weed control at 140 g/ha: 140 g ai/ha
Method in brief: as §2

[7] = Euphorbia heterophylla, 336 h, foliar post-emergent, scored after 14 days, read-out: % Visual Growth Reduction EPHHL
[8] = Chenopodium album, 336 h, foliar post-emergent, scored after 14 days, read-out: % Visual Growth Reduction CHEAL
[9] = Echinochloa crus-galli, 336 h, foliar post-emergent, scored after 14 days, read-out: % Visual Growth Reduction ECHCG
[10] = Amaranthus retroflexus, 336 h, foliar post-emergent, scored after 14 days, read-out: % Visual Growth Reduction AMARE
[11] = Helianthus annuus, 336 h, foliar post-emergent, scored after 14 days, read-out: % Visual Growth Reduction HELAN
[12] = Viola tricolor, 336 h, foliar post-emergent, scored after 14 days, read-out: % Visual Growth Reduction VIOTR

## COC(=O)c1nc(CF)cc(N)c1Cl [Compound F26, methyl 4-amino-3-chloro-6-(fluoromethyl)picolinate]
Zea mays L. (corn); 37 g ai/ha
  plant injury at 37 g/ha: 0%
Zea mays L. (corn); 74 g ai/ha
  plant injury at 74 g/ha: 0%
Zea mays L. (corn); 148 g ai/ha
  plant injury at 148 g/ha: 10%
Oryza sativa L. (rice); 37 g ai/ha
  plant injury at 37 g/ha: 0%
Oryza sativa L. (rice); 74 g ai/ha
  plant injury at 74 g/ha: 0%
Oryza sativa L. (rice); 148 g ai/ha
  plant injury at 148 g/ha: 0%
[1]; Euphorbia heterophylla, 336 h, 37 g ai/ha, foliar post-emergent, scored after 14 days, read-out: % Visual Growth Reduction EPHHL
  pest or weed control at 37 g/ha: 90%
[1]; Euphorbia heterophylla, 336 h, 74 g ai/ha, foliar post-emergent, scored after 14 days, read-out: % Visual Growth Reduction EPHHL
  pest or weed control at 74 g/ha: 100%
[1]; Euphorbia heterophylla, 336 h, 148 g ai/ha, foliar post-emergent, scored after 14 days, read-out: % Visual Growth Reduction EPHHL
  pest or weed control at 148 g/ha: 100%
[1]
  GR80 Value EPHHL: 38.8 g ai/ha
[2]; Chenopodium album, 336 h, 37 g ai/ha, foliar post-emergent, scored after 14 days, read-out: % Visual Growth Reduction CHEAL
  pest or weed control at 37 g/ha: 90%
[2]; Chenopodium album, 336 h, 74 g ai/ha, foliar post-emergent, scored after 14 days, read-out: % Visual Growth Reduction CHEAL
  pest or weed control at 74 g/ha: 90%
[2]; Chenopodium album, 336 h, 148 g ai/ha, foliar post-emergent, scored after 14 days, read-out: % Visual Growth Reduction CHEAL
  pest or weed control at 148 g/ha: 90%
[2]
  GR80 Value CHEAL: 29 g ai/ha
[3]; Echinochloa crus-galli, 336 h, 37 g ai/ha, foliar post-emergent, scored after 14 days, read-out: % Visual Growth Reduction ECHCG
  pest or weed control at 37 g/ha: 0%
[3]; Echinochloa crus-galli, 336 h, 74 g ai/ha, foliar post-emergent, scored after 14 days, read-out: % Visual Growth Reduction ECHCG
  pest or weed control at 74 g/ha: 0%
[3]; Echinochloa crus-galli, 336 h, 148 g ai/ha, foliar post-emergent, scored after 14 days, read-out: % Visual Growth Reduction ECHCG
  pest or weed control at 148 g/ha: 20%
[3]
  GR80 Value ECHCG: >148 g ai/ha
[4]; Amaranthus retroflexus, 336 h, 37 g ai/ha, foliar post-emergent, scored after 14 days, read-out: % Visual Growth Reduction AMARE
  pest or weed control at 37 g/ha: 0%
[4]; Amaranthus retroflexus, 336 h, 74 g ai/ha, foliar post-emergent, scored after 14 days, read-out: % Visual Growth Reduction AMARE
  pest or weed control at 74 g/ha: 80%
[4]; Amaranthus retroflexus, 336 h, 148 g ai/ha, foliar post-emergent, scored after 14 days, read-out: % Visual Growth Reduction AMARE
  pest or weed control at 148 g/ha: 90%
[4]
  GR80 Value AMARE: 104 g ai/ha
[5]; Helianthus annuus, 336 h, 37 g ai/ha, foliar post-emergent, scored after 14 days, read-out: % Visual Growth Reduction HELAN
  pest or weed control at 37 g/ha: 70%
[5]; Helianthus annuus, 336 h, 74 g ai/ha, foliar post-emergent, scored after 14 days, read-out: % Visual Growth Reduction HELAN
  pest or weed control at 74 g/ha: 90%
[5]; Helianthus annuus, 336 h, 148 g ai/ha, foliar post-emergent, scored after 14 days, read-out: % Visual Growth Reduction HELAN
  pest or weed control at 148 g/ha: 90%
[5]
  GR80 Value HELAN: 48.3 g ai/ha
[6]; Viola tricolor, 336 h, 37 g ai/ha, foliar post-emergent, scored after 14 days, read-out: % Visual Growth Reduction VIOTR
  pest or weed control at 37 g/ha: 10%
[6]; Viola tricolor, 336 h, 74 g ai/ha, foliar post-emergent, scored after 14 days, read-out: % Visual Growth Reduction VIOTR
  pest or weed control at 74 g/ha: 15%
[6]; Viola tricolor, 336 h, 148 g ai/ha, foliar post-emergent, scored after 14 days, read-out: % Visual Growth Reduction VIOTR
  pest or weed control at 148 g/ha: 70%
[6]
  GR80 Value VIOTR: 223 g ai/ha

## Nc1cc(C(F)F)nc(C(=O)O)c1Cl [Compound F27]
Zea mays L. (corn); 35 g ai/ha
  plant injury at 35 g/ha: 20%
Zea mays L. (corn)
  plant injury at 70 g/ha: 50%
  plant injury at 140 g/ha: 60%
  plant injury at 280 g/ha: 60%
Oryza sativa L. (rice)
  plant injury at 70 g/ha: 13%
  plant injury at 140 g/ha: 15%
  plant injury at 280 g/ha: 20%
[1]; Euphorbia heterophylla, 336 h, 35 g ai/ha, foliar post-emergent, scored after 14 days, read-out: % Visual Growth Reduction EPHHL
  pest or weed control at 35 g/ha: 90%
[1]; [7]
  pest or weed control at 70 g/ha: 100%
  pest or weed control at 140 g/ha: 100%
  pest or weed control at 280 g/ha: 100%
[1]
  GR80 Value EPHHL: <17.5 g ai/ha
[2]; Chenopodium album, 336 h, 35 g ai/ha, foliar post-emergent, scored after 14 days, read-out: % Visual Growth Reduction CHEAL
  pest or weed control at 35 g/ha: 100%
[2]; [8]
  pest or weed control at 70 g/ha: 100%
  pest or weed control at 140 g/ha: 100%
  pest or weed control at 280 g/ha: 100%
[2]
  GR80 Value CHEAL: <17.5 g ai/ha
[3]; Echinochloa crus-galli, 336 h, 35 g ai/ha, foliar post-emergent, scored after 14 days, read-out: % Visual Growth Reduction ECHCG
  pest or weed control at 35 g/ha: 0%
[3]; [9]
  pest or weed control at 70 g/ha: 65%
  pest or weed control at 140 g/ha: 80%
  pest or weed control at 280 g/ha: 80%
[3]
  GR80 Value ECHCG: 187 g ai/ha
[4]; Amaranthus retroflexus, 336 h, 35 g ai/ha, foliar post-emergent, scored after 14 days, read-out: % Visual Growth Reduction AMARE
  pest or weed control at 35 g/ha: 90%
[4]; [10]
  pest or weed control at 70 g/ha: 90%
  pest or weed control at 140 g/ha: 100%
  pest or weed control at 280 g/ha: 100%
[4]
  GR80 Value AMARE: 17.5 g ai/ha
[5]; Helianthus annuus, 336 h, 35 g ai/ha, foliar post-emergent, scored after 14 days, read-out: % Visual Growth Reduction HELAN
  pest or weed control at 35 g/ha: 90%
[5]; [11]
  pest or weed control at 70 g/ha: 100%
  pest or weed control at 140 g/ha: 100%
  pest or weed control at 280 g/ha: 100%
[5]
  GR80 Value HELAN: <17.5 g ai/ha
[6]; Viola tricolor, 336 h, 35 g ai/ha, foliar post-emergent, scored after 14 days, read-out: % Visual Growth Reduction VIOTR
  pest or weed control at 35 g/ha: 80%
[6]; [12]
  pest or weed control at 70 g/ha: 100%
  pest or weed control at 140 g/ha: 100%
[6]
  GR80 Value VIOTR: 59.2 g ai/ha

## COC(=O)c1nc(C(F)CF)cc(N)c1Cl (stereo not drawn) [Compound F28, methyl 4-amino-3-chloro-6-(1,2-difluoroethyl)picolinate]
Zea mays L. (corn)
  plant injury at 70 g/ha: 10%
  plant injury at 140 g/ha: 10%
  plant injury at 280 g/ha: 10%
Oryza sativa L. (rice)
  plant injury at 70 g/ha: 0%
  plant injury at 140 g/ha: 0%
  plant injury at 280 g/ha: 0%
[1]; [7]
  pest or weed control at 70 g/ha: 80%
  pest or weed control at 140 g/ha: 100%
  pest or weed control at 280 g/ha: 100%
[1]
  GR80 Value EPHHL: 73 g ai/ha
[2]; [8]
  pest or weed control at 70 g/ha: 90%
  pest or weed control at 140 g/ha: 80%
  pest or weed control at 280 g/ha: 90%
[2]
  GR80 Value CHEAL: 17.5 g ai/ha
[3]; [9]
  pest or weed control at 70 g/ha: 0%
  pest or weed control at 140 g/ha: 0%
  pest or weed control at 280 g/ha: 0%
[3]
  GR80 Value ECHCG: >280 g ai/ha
[4]; [10]
  pest or weed control at 70 g/ha: 80%
  pest or weed control at 140 g/ha: 100%
  pest or weed control at 280 g/ha: 100%
[4]
  GR80 Value AMARE: 66.4 g ai/ha
[5]; [11]
  pest or weed control at 70 g/ha: 80%
  pest or weed control at 140 g/ha: 90%
  pest or weed control at 280 g/ha: 95%
[5]
  GR80 Value HELAN: 52.9 g ai/ha
[6]; [12]
  pest or weed control at 70 g/ha: 15%
  pest or weed control at 140 g/ha: 75%
[6]; Viola tricolor, 336 h, 280 g ai/ha, foliar post-emergent, scored after 14 days, read-out: % Visual Growth Reduction VIOTR
  pest or weed control at 280 g/ha: 90%
[6]
  GR80 Value VIOTR: 197 g ai/ha
